Biological target: T1, amyloid-β (Aβ1-40) fibrils (Homo sapiens, UniProt P05067)
T1 construct: gene APP; Aβ1-40, aggregated (fibrils)
Assay: fluorescence saturation binding (ΔF at […] nm, fibrils vs soluble Aβ)

T1 sequence (P05067 672-711): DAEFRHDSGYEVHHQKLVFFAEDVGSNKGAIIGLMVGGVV

Kd: 156 nM
SMILES: Cc1ccc2c(c1)C(C)(C)C1(/C=C/C=C/c3ccc(N(C)C)cc3)NC(=O)CCN21 (stereo not shown) [THK-565, 10a-[(1E,3E)-4-(4-dimethylamino-phenyl)-buta-1,3-dienyl]-8,10,10-trimethyl-3,4,10,10a-tetrahydro-1H-pyrimido[1,2-a]indol-2-one]

Source: article PMC10728248, “A Novel Near-Infrared Fluorescence Probe THK-565 Enables In Vivo Detection of Amyloid Deposits in Alzheimer’s Disease Mouse Model” (Molecular Imaging and Biology, 2023)
